From patent US11788146B2, “Methods for therapeutics prescreening in bodily fluids” (BARCODE DIAGNOSTICS LTD., priority 2017, dated 2023)
Where two headings read alike, the source gives them in different places.

What was measured:
4T1 cells [1] = details: cited from earlier work
[2] = tested on: triple negative breast cancer tumor; assay: Barcode analysis in live and dead tumor cells after injection of liposome mixes; format: in vivo, BALB/c female mice; details: 5%, 1% or 0.1% of ETD liposome mixes; 48 hours post injection; patent regards it as likely artifact
From the text: FIGS. 1A-C: Detection of barcodes from liposome mixes with equal relative drug concentrations. Bar charts showing the potency of gemcitabine, cisplatin and doxorubicin against triple negative breast cancer tumors when the drugs are provided at (1A) 5%, (1B) 1%, and (1C) 0.1% of the effective therapeutic dose (ETD). Potency of the drugs was defined as the ratio of the amount of a barcode in dead cells to the amount of that barcode in live cells.
Each drug has its own specific effective therapeutic dose […], and in order to test efficacy it is reasonable that each liposome mix (a mix of all three types of liposomes to be injected together) should have the same relative amount of each drug. That is, in order to determine an ideal dose, batches of mixed liposomes were generated in which all three drugs were present in a concentration that was either 5%, 1% or 0.1% of the effective therapeutic dose. Table 2 provides the amounts (in ul) of each liposome batch that were added to the mix in order to provide each total dose.
Cell from a triple negative breast cancer tumor were transplanted to the fat pad of BALB/c female mice and allowed to grow to form tumors in the mice. The mice were separated into 3 groups and then each group was injected with the 5%, 1% or 0.1% liposome mixes. […]

4T1 cells [3] = details: cited from earlier work; remark: listed apart in the source

| SMILES | Sensitivity of 4T1 cells (4T1 cells [1]) | Effectiveness relative to the other two drugs [2] [fold] | Potency (ratio of barcode in dead cells to barcode in live cells), ranking [2] | Effect on tumor growth (4T1 cells [3]; at later time points) | Effect on tumor growth (4T1 cells [3]; within the first couple of days of treatment) | Resistance of 4T1 cells (4T1 cells [1]) |
| --- | --- | --- | --- | --- | --- | --- |
| N.N.[Cl][Pt][Cl] [cisplatin] | highly sensitive |  |  |  |  |  |
| Nc1ccn([C@@H]2O[C@H](CO)[C@@H](O)C2(F)F)c(=O)n1 [Gemcitabine] |  | > 10 | most effective treatment | not be effective | retards tumor growth |  |
| COc1cccc2c1C(=O)c1c(O)c3c(c(O)c1C2=O)C[C@@](O)(C(=O)CO)C[C@@H]3O[C@H]1C[C@H](N)[C@H](O)[C@H](C)O1 [doxorubicin] | less so |  |  |  |  | become resistant |
